Data reported in patent publication US20210353579A1, “HIGH PENETRATION COMPOSITIONS AND USES THEREOF” (Techfields Pharma Co., Ltd., priority 2006, published 2021).

How the values were obtained:
[1] = tested on: Human colon cancer cells (LS174J); experiment: Human colon cancer xenograft in nude mice, topical; conditions: day 30, about 30 μl of 5% solution (1.5 mg) topically applied
From the text: Human colon cancer cells (LS174J, 2-3 mm^3 of tumor tissue was used in each mouse) are subcutaneously xenografted into the front leg of nude mice (BALB).

[2] = tested on: rats (SLAC/GK, type 2 diabetes); experiment: Blood glucose in type 2 diabetes rats, transdermal; type: in vivo, rat; conditions: diabetic rats (SLAC/GK)
In short: (§1)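 GK type 2 diabetic rats (n=7) received the HPPs transdermally on a shaved ~1.5 cm^2 area of the back, at a dose equal to 20 mg/kg of NSAIAs, once daily for 5 weeks. Non-fasting blood glucose was measured every 3 days at 3 pm from week 2 to week 5, and blood lipids at the end of week 5.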

[3] = tested on: rats (SLAC/GK, type 2 diabetes); experiment: Blood lipid in type 2 diabetes rats, transdermal; type: in vivo, rat
In short: as §1

[4] = tested on: rats (SLAC/GK, type 2 diabetes); experiment: Blood glucose in type 2 diabetes rats, oral with food; type: in vivo, rat
In short: (§2)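 Compounds (dosed equivalent to 20 mg/kg of NSAIAs) mixed in food and given orally daily for 5 weeks to rats (n=7). Non-fasting blood glucose measured every 3 days at 3 pm from week 2 to week 5; blood lipids measured at end of week 5.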

[5] = tested on: rats (SLAC/GK, type 2 diabetes); experiment: Blood lipid in type 2 diabetes rats, oral with food; type: in vivo, rat
In short: as §2

mice (MRL/LPR) = experiment: Anti-lupus erythematosus activity; type: in vivo, mouse; conditions: 30 mg/kg topically twice per day, after 6 weeks
Chinese white rabbits = experiment: Autologous blood clot pulmonary embolization, thrombus propagation; type: in vivo, rabbit; conditions: 20 mg/kg topically, after 2 days
Protocol: Eighteen Chinese White rabbits weighing between 3.0 and 3.5 kg (aged 6-7 months) were selected and divided into three groups (control, P-1 and […] groups, n=6). One hour before the experiment, thrombi were made by aspirating venous blood (1 ml) into a sterilized bottle to clot. To avoid fragmentation and slow lysis, the autologous blood clots were stabilized in temperature-controlled (70° C.) distilled water for 10 min. After anesthesia, the femoral veins were exposed and distally isolated, and autologous blood clots (0.05 g/kg) were injected through an indwelling catheter (20 GA), which had been placed in the femoral vein isolated earlier. 50% acetone solution of diethylaminoethyl acetylsalicylate.acetylsalicylic acid salt (P-1, in acetone, 20 mg/kg) and diethylaminoethyl acetylsalicylsalicylate. acetylsalicylsalicylic acid salt (P-59, 20 mg/kg) were topically applied to the back of the rabbits. After 2 days, rabbits were euthanized with an excessive intravenous injection of sodium amobarbital (60 mg/kg). The lungs and hearts were isolated to observe whether thrombi were present in the pulmonary arteries. The lungs were immersed in 10% formalin for 24 h. Consecutive transverse sections along the obstructed pulmonary arteries were paraffin-embedded and stained with hematoxylin-eosine. […]

normal rats = experiment: Blood glucose in normal rats, transdermal; type: in vivo, rat
In short: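 Compounds equivalent to 20 mg/kg NSAIA were applied transdermally to a shaved ~1.5 cm^2 area of rat backs once daily at 8 am for 5 weeks (n=7). Non-fasting blood glucose was measured every 3 days at 3 pm from week 2 to week 5, and blood lipids at the end of week 5.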

[6] = baseline, equal to 20 mg/kg of NSAIAs
[7] = end of the fifth week, equal to 20 mg/kg of NSAIAs once per day
[8] = end of the fifth week, equal to 20 mg/kg of NSAIAs every day

CC(=O)Oc1ccccc1C(=O)O.CCN(CC)CCOC(=O)c1ccccc1OC(C)=O [P-1, diethylaminoethyl acetylsalicylate.acetylsalicylic acid salt]
Tumor size [1]: 420 ± 100 mm^3 | Blood glucose, Average ([2]; average second to fifth week, no fasting, equal to 20 mg/kg of NSAIAs once per day for 5 weeks): 6.5 ± 1 mmol/L | Blood glucose, Baseline ([2]; baseline, equal to 20 mg/kg of NSAIAs once per day): 16.1 ± 3 mmol/L | Cholesterol (HDL), Baseline [3, 6]: 1.4 ± 0.2 mmol/L | Cholesterol (total), Baseline [3, 6]: 7.7 ± 0.4 mmol/L | Triglycerides, Baseline [3, 6]: 5.4 ± 0.5 mmol/L | Cholesterol (HDL), Average [3, 7]: 1.5 ± 0.2 mmol/L | Cholesterol (total), Average [3, 7]: 4.0 ± 0.3 mmol/L | Triglycerides, Average [3, 7]: 1.5 ± 0.2 mmol/L | Blood glucose, Diabetic rats, Average ([4]; average second to fifth week, no fasting, equal to 20 mg/kg of NSAIAs every day for 5 weeks): 6.5 ± 1 mmol/L | Blood glucose, Diabetic rats, Baseline [4, 6]: 16.5 ± 3 mmol/L | Cholesterol (HDL), Baseline [5, 6]: 1.5 ± 0.2 mmol/L | Cholesterol (total), Baseline [5, 6]: 7.6 ± 0.4 mmol/L | Triglycerides, Baseline [5, 6]: 5.7 ± 0.5 mmol/L | Cholesterol (HDL), Average [5, 8]: 1.6 ± 0.2 mmol/L | Cholesterol (total), Average [5, 8]: 4.1 ± 0.3 mmol/L | Triglycerides, Average [5, 8]: 1.4 ± 0.2 mmol/L | skin lesions and lupus nephritis (mice (MRL/LPR)): all skin lesions and lupus nephritis were resolved | lung tissue and vascular walls (thrombus propagation) (Chinese white rabbits): both lung tissue and vascular walls were normal | Blood glucose, Average (normal rats; normal rats (second Average line of Table 24), average second to fifth week, equal to 20 mg/kg of NSAIAs once per day): 6.3 ± 1 mmol/L | Blood glucose, Baseline (normal rats; normal rats (second Baseline line of Table 24), baseline, equal to 20 mg/kg of NSAIAs): 6.4 ± 1 mmol/L
